Results from patent US20250084078A1, “FUSED RING-SUBSTITUTED SIX-MEMBERED HETEROCYCLIC COMPOUND, AND PREPARATION METHOD THEREFOR AND USE THEREOF” (GENFLEFT THERAPEUTICS (SHANGHAI) INC., priority 2022, published 2025).

What was measured:
HPK1 [1] = biological target: T1, HPK1 (Homo sapiens, UniProt Q92918); assay: HPK1 kinase activity assay (ADP-Glo); conditions: 1 nM HPK1, 10 μM ATP, 0.1 μg/μL MBP
T1 sequence (Q92918 1-346): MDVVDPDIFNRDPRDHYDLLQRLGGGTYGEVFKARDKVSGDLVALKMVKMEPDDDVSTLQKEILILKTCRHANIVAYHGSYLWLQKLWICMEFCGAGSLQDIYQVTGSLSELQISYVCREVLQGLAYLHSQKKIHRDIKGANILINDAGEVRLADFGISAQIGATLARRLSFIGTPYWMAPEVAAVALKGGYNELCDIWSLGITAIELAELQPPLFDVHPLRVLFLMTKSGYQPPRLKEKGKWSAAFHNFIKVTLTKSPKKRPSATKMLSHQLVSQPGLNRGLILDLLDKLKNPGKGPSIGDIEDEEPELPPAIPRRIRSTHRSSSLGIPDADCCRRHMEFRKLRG
Method: Preparation of buffer: Ix reaction buffer (40 mM Tris-HCl, 20 mM MgCl2, 0.01% Brij35, 50 μM DTT, 0.1 mg/ml BSA) was prepared using sterile water, which was prepared and used on the day of the experiment.
Preparation of 1000× drug stock plate: a 1000× compound stock plate was prepared. […] The compound stock plate was sealed with a sealing film and stored in a −20° C. refrigerator for later use.
Compound preparation and dosing: the 1000× drug stock plate was taken and melted at room temperature in the dark. Then 5× drug intermediate plate was prepared using reaction buffer and mixed well. 2 μL was transferred from the 5× drug intermediate plate into a 384-well plate, and negative control well and positive control well (in which 2 μL reaction buffer containing 0.5% DMSO was added) were set. Each point was repeated twice.
Preparation and incubation of reaction mixture: HPK1 protein was diluted to a 2.5× working solution with reaction buffer. 4 μL 2.5×HPK1 protein was added to each well containing test compound and positive control well, and 4 μL of reaction buffer without HPK1 protein was added to the negative control well. The obtained mixture was centrifuged at 1000 rpm for 1 min and then incubated in a 20° C. incubator for 15 min. A 2.5× mixed working solution of MBP protein and ATP was prepared with reaction buffer at concentrations of 0.5 μg/μL and 50 μM, respectively. 4 μL of the mixed working solution of MBP and ATP was added to each well, centrifuged at 1000 rpm for 1 min, and then incubated in a 20° C. incubator for 90 min.
ADP-Glo detection and reading plate: 10 μl ADP-Glo was added to each well of the test plate. The resulting mixture was centrifuged at 1000 rpm for 1 min and incubated in a 20° C. incubator for 60 min. Then 10 μL of the final incubation solution was transferred from the test plate to a new 384-well plate. 10 μL of kinase detection reagent was added to each well, centrifuged at 400 g for 1 min, and incubated in a 20° C. incubator for 60 min Chemiluminescent signals were read by a microplate reader.

HPK1 [2] = biological target: HPK1 (Homo sapiens, UniProt Q92918); assay: SLP76 phosphorylation assay (intracellular HPK1 inhibitory activity, p-SLP76 S376 ELISA in Jurkat cells); conditions: Clone E6-1 cells, 1 h compound pre-incubation, anti-CD3 beads stimulation 20 min, Phospho-SLP-76 (Ser376) ELISA
Target sequence in this assay (Q92918 whole entry): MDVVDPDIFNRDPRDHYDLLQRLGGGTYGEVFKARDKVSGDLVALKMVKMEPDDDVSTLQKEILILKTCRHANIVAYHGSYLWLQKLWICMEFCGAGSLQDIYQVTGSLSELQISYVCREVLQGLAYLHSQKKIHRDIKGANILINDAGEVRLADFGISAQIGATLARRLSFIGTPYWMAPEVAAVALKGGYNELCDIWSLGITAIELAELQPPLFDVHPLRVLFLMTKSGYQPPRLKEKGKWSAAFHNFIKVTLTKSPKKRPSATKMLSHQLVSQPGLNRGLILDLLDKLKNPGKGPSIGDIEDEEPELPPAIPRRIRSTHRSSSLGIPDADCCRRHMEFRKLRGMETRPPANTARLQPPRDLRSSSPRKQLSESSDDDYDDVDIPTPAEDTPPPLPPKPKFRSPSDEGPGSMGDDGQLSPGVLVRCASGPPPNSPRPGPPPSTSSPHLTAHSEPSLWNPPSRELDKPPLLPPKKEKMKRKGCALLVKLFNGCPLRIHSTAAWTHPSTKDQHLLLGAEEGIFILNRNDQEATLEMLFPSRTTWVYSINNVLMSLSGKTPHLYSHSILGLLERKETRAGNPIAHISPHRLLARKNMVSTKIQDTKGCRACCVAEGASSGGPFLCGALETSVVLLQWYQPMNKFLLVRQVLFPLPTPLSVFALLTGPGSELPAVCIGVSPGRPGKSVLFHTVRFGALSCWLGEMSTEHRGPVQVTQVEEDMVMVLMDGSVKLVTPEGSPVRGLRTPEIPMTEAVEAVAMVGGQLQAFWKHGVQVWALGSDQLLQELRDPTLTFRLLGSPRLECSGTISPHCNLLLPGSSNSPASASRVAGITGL

[3] = HPK1 Kinase activity IC50, ADP-Glo
[4] = read-out: HPK1 Kinase activity IC50, ADP-Glo

IC50 (HPK1 [1]; [3]) [nM] | IC50 (HPK1 [2]; p-SLP76 IC50, Jurkat) [nM] | IC50 (HPK1 [1]; [4]) [nM] | IC50 (HPK1 [2]; read-out: p-SLP76 IC50, Jurkat) [nM] | SMILES
0.27 | 67.1 |  |  | O=C(N1CCc2cc(-c3cnc4[nH]cc(Cl)c4c3)cc([C@@H]3COCCN3)c2C1)N1C[C@H]2C[C@@H]1CO2 [Compound Z608, ((1R,4R)-2-oxa-5-azabicyclo[2.2.1]heptan-5-yl)(6-(3-chloro-1H-pyrrolo[2,3-b]pyridin-5-yl)-8-((R)-morpholin-3-yl)-3,4-dihydroisoquinolin-2(1H)-yl)methanone]
0.72 | 349 |  |  | CCc1c(Cl)[nH]c2ncc(-c3cc4c(c([C@@H]5COCCN5)c3)CN(C(=O)C(C)(C)O)CC4)cc12 [Compound Z422, (R)-1-(6-(2-chloro-3-ethyl-1H-pyrrolo[2,3-b]pyridin-5-yl)-8-(morpholin-3-yl)-3,4-dihydroisoquinolin-2(1H)-yl)-2-hydroxy-2-methylpropan-1-one]
0.81 | 453 |  |  | Cc1c[nH]c2ncc(-c3cc4c(c([C@@H]5CCCN5)c3)CN(C(=O)c3ccn(C5CC5)n3)CC4)cc12 [Compound Z494, (S)-(1-cyclopropyl-1H-pyrazol-3-yl)(6-(3-methyl-1H-pyrrolo[2,3-b]pyridin-5-yl)-8-(pyrrolidin-2-yl)-3,4-dihydroisoquinolin-2(1H)-yl)methanone]
0.25 | 78.1 |  |  | Cc1c[nH]c2ncc(-c3cc4c(c([C@@H]5COCCN5)c3)CN(C(=O)N3CC(O)CC3(C)C)CC4)cc12 (some centres unmarked) [Compound Z577]
0.22 | 62.7 |  |  | CC(C)(O)C(=O)N1CCc2cc(-c3cnc4[nH]cc(Cl)c4c3)cc([C@@H]3CCCN3)c2C1 [Compound Z496]
0.17 | 51.8 |  |  | CC(C)(O)C(=O)N1CCc2cc(-c3cnc4[nH]cc(C5CC5)c4c3)cc([C@@H]3COCCN3)c2C1 [Compound Z523, (R)-1-(6-(3-cyclopropyl-1H-pyrrolo[2,3-b]pyridin-5-yl)-8-(morpholin-3-yl)-3,4-dihydroisoquinolin-2(1H)-yl)-2-hydroxy-2-methylpropan-1-one]
0.29 | 120 |  |  | CCc1c[nH]c2ncc(-c3cc4c(c([C@@H]5COCCN5)c3)CN(C(=O)N3CCOCC3)CC4)cc12 [Compound Z448, (R)-(6-(3-ethyl-1H-pyrrolo[2,3-b]pyridin-5-yl)-8-(morpholin-3-yl)-3,4-dihydroisoquinolin-2(1H)-yl)(morpholine)methanone]
0.18 | 44.8 |  |  | O=C(N1CCc2cc(-c3cnc4[nH]cc(Cl)c4c3)cc([C@@H]3COCCN3)c2C1)N1CC2CCC(C1)O2 [Compound Z447, (8-oxa-3-azabicyclo[3.2.1]octan-3-yl)(6-(3-chloro-1H-pyrrolo[2,3-b]pyridin-5-yl)-8-((R)-morpholin-3-yl)-3,4-dihydroisoquinolin-2(1H)-yl)methanone]
0.13 | 31.9 |  |  | Cc1c[nH]c2ncc(-c3cc4c(c([C@@H]5COCCN5)c3)CN(C(=O)N3C5CCC3COC5)CC4)nc12 [Compound Z570, (3-oxa-8-azabicyclo[3.2.1]octan-8-yl)(6-(7-methyl-5H-pyrrolo[2,3-b]pyrazin-2-yl)-8-((R)-morpholin-3-yl)-3,4-dihydroisoquinolin-2(1H)-yl)methanone]
0.49 | 108 |  |  | O=C(N1CCc2cc(-c3cnc4[nH]cc(Cl)c4n3)cc([C@@H]3COCCN3)c2C1)N1C2CCC1COC2 [Compound Z571, (3-oxa-8-azabicyclo[3.2.1]octan-8-yl)(6-(7-chloro-5H-pyrrolo[2,3-b]pyrazin-2-yl)-8-((R)-morpholin-3-yl)-3,4-dihydroisoquinolin-2(1H)-yl)methanone]
0.24 | 61.7 |  |  | O=C(N1CCc2cc(-c3cnc4[nH]cc(Cl)c4n3)cc([C@@H]3COCCN3)c2C1)N1C[C@@H]2CC[C@H]1CO2 (single isomer, unassigned) [Compound Z590]
0.16 | 42.4 |  |  | CCc1c[nH]c2ncc(-c3cc4c(c([C@@H]5COCCN5)c3)CN(C(=O)N3CCOCC3)CC4)nc12 [Compound Z528, (R)-(6-(7-ethyl-5H-pyrrolo[2,3-b]pyrazin-2-yl)-8-(morpholin-3-yl)-3,4-dihydroisoquinolin-2(1H)-yl)(morpholino)methanone]
0.87 |  |  |  | CCC(=O)N1CCc2cc(-c3cnc4[nH]cc(C)c4c3)cc(C3CCCN3)c2C1 (centres unmarked) [Compound Z35]
0.83 | 196 |  |  | Cc1c[nH]c2ncc(-c3cc4c(c([C@@H]5COCCN5)c3)CCN(C(=O)[C@H]3CCOC3)C4)cc12 [Compound Z446, (7-(3-methyl-1H-pyrrolo[2,3-b]pyridin-5-yl)-5-((R)-morpholin-3-yl)-3,4-dihydroisoquinolin-2(1H)-yl)((S)-tetrahydrofuran-3-yl)methanone]
1.29 | 308 |  |  | Cc1c[nH]c2ncc(-c3cc4c(c([C@@H]5CCCN5)c3)CN(C(=O)N3CCOC(C(F)(F)F)C3)CC4)cc12 (single isomer, unassigned) [Compound Z491]
 |  | 2.26 | 469 | Cc1c[nH]c2ncc(-c3cc4c(c([C@@H]5CCCN5)c3)CN(C(=O)CC3CC3)CC4)cc12 [Compound Z220, (S)-2-cyclopropyl-1-(6-(3-methyl-1H-pyrrolo[2,3-b]pyridin-5-yl)-8-(pyrrolidin-2-yl)-3,4-dihydroisoquinolin-2(1H)-yl)ethanone]
0.21 | 150 |  |  | Cc1c[nH]c2ncc(-c3cc4c(c([C@@H]5COCCN5)c3)CN(C(=O)N3CC[C@H](F)C3)CC4)cc12 [Compound Z488, ((S)-3-fluoropyrrolidin-1-yl)(6-(3-methyl-1H-pyrrolo[2,3-b]pyridin-5-yl)-8-((R)-morpholin-3-yl)-3,4-dihydroisoquinolin-2(1H)-yl)methanone]
0.11 | 44.2 |  |  | Cc1c[nH]c2ncc(-c3cc4c(c([C@@H]5COCCN5)c3)CN(C(=O)N3CC5CCC(C3)O5)CC4)cc12 [Compound Z451, (8-oxa-3-azabicyclo[3.2.1]octan-3-yl)(6-(3-methyl-1H-pyrrolo[2,3-b]pyridin-5-yl)-8-((R)-morpholin-3-yl)-3,4-dihydroisoquinolin-2(1H)-yl)methanone]
 |  | 0.64 |  | Cc1cn(C2CC2)nc1C(=O)N1CCc2cc(-c3cnc4[nH]cc(C)c4c3)cc([C@@H]3CCCN3)c2C1 [Compound Z342, (S)-(1-cyclopropyl-4-methyl-1H-pyrazol-3-yl)-[6-(3-methyl-1H-pyrrolo[2,3-b]pyridin-5-yl)-8-[pyrrolidin-2-yl]-3,4-dihydro-2(1H)-isoquinolin-yl]methanone]
0.25 | 83.2 |  |  | Cc1c[nH]c2ncc(-c3cc4c(c([C@@H]5COCCN5)c3)CN(C(=O)N3CCC(F)CC3)CC4)cc12 [Compound Z585, (R)-(4-fluoropiperidin-1-yl)(6-(3-methyl-1H-pyrrolo[2,3-b]pyridin-5-yl)-8-(morpholin-3-yl)-3,4-dihydroisoquinolin-2(1H)-yl)methanone]
0.85 | 253 |  |  | CC(C)(O)C(=O)N1CCc2cc(-c3cnc4[nH]cc(F)c4c3)cc([C@@H]3COCCN3)c2C1 [Compound Z445, (R)-1-(6-(3-fluoro-1H-pyrrolo[2,3-b]pyridin-5-yl)-8-(morpholin-3-yl)-3,4-dihydroisoquinolin-2(1H)-yl)-2-hydroxy-2-methylpropan-1-one]
0.78 | 252 |  |  | Cc1c[nH]c2ncc(-c3cc4c(c([C@@H]5CCCN5)c3)CN(C(=O)C(C)(C)C)CC4)cc12 [Compound Z126]
0.36 | 86.2 |  |  | CC1(C)CC(O)CN1C(=O)N1CCc2cc(-c3cnc4[nH]cc(Cl)c4c3)cc([C@@H]3COCCN3)c2C1 (stereo partly drawn) [Compound Z617, (6-(3-chloro-1H-pyrrolo[2,3-b]pyridin-5-yl)-8-((R)-morpholin-3-yl)-3,4-dihydroisoquinolin-2(1H)-yl)(4-hydroxy-2,2-dimethylpyrrolidin-1-yl)methanone]
0.41 | 295 |  |  | Cc1c[nH]c2ncc(-c3cc4c(c([C@@H]5CCCN5)c3)CN(C(=O)c3cc(C5CC5)nn3C)CC4)cc12 [Compound Z493, (S)-(3-cyclopropyl-1-methyl-1H-pyrazol-5-yl)-[6-(3-methyl-1H-pyrrolo[2,3-b]pyridin-5-yl)-8-[pyrrolidin-5-yl]-3,4-dihydroisoquinolin-2(1H)-yl]methanone]
0.49 | 205 |  |  | Cc1cc(CC(=O)N2CCc3c(cc(-c4cnc5[nH]cc(C)c5c4)cc3[C@@H]3CCCN3)C2)ccn1 [Compound Z333, (S)-2-(2-methyl-4-pyridyl)-1-[7-(3-methyl-1H-pyrrolo[2,3-b]pyridin-5-yl)-5-pyrrolidin-2-yl-3,4-dihydro-1H-isoquinolin-2-yl]ethanone]
22.7 |  |  |  | Cc1c[nH]c2ncc(-c3cc4c(c(C5COCCN5)c3)CN(C(=O)[C@](C)(O)C(F)(F)F)CC4)cc12 (single isomer, unassigned) [Compound Z309-2]
12.4 |  |  |  | Cc1c[nH]c2ncc(-c3cc4c(c([C@H]5COCCN5)c3)CCN(C(=O)C3CCOCC3)C4)cc12 [Compound Z449, (S)-(7-(3-methyl-1H-pyrrolo[2,3-b]pyridin-5-yl)-5-(morpholin-3-yl)-3,4-dihydroisoquinolin-2(1H)-yl)(tetrahydro-2H-pyran-4-yl)methanone]
